Laboratory results taken from US10016397B2, “Selective AT2 receptor agonists for use in treatment of cachexia” (Charité-Universitaetsmedizin Berlin, priority 2013, dated 2018).

Columns and labels:
[1] = system: ascites hepatoma Yoshida AH-130 cells inoculated into male Wistar rats; assay: AH-130 Yoshida hepatoma cancer cachexia rat model; conditions: for survival / mortality (Kaplan Meier): low dose 0.2 mg/kg/day
Text: Use of an ACE inhibitor blocks all activation of both the AT1 and AT2 receptors, therefore inhibiting the beneficial effects of angiotensin II mediated activation of the AT2 receptor.
(§1) The ascites hepatoma Yoshida AH-130 cells (10^8) were inoculated into approx. 200 g male Wistar rats. Alternatively animals received saline injection only (sham). The animals were housed in groups of three. The day after inoculation animals were randomized into various groups as described in the methods. […] The primary endpoints of the study included survival and quality of life. Secondary endpoints included body weight and body composition as well as organ weight, which were assessed at the end of the study (or after death).
as §1, with “randomized.” for “randomized into various groups as described in the methods.”

AT1 receptor = conditions: read-out: Ki for AT1 receptor; cited from earlier work
[2] = 0.2 mg/kg/d, vs placebo, listed as Compound-21
[3] = 0.2 mg/kg/d, vs placebo, listed as compound-21
[4] = high dose 1.0 mg/kg/d, vs placebo, listed as Compound-21, 1 mg/kg/day
[5] = high dose 1.0 mg/kg/d, vs placebo, listed as compound-21, 1 mg/kg/day

In the case of `CCOC(=O)[C@H](CCc1ccccc1)N[C@@H](C)C(=O)N1C(=O)N(C)C[C@H]1C(=O)O` [imidapril, reference compound], the “quality of life (activity and food intake)” value ([1]; imidapril) is reported as “did not improve quality of life”, the “hazard ratio and survival” value ([1]; imidapril, compared to untreated tumor-bearing animals) is reported as “worse hazard ratio and survival” and the body weight loss ([1]; imidapril, vs untreated tumor-bearing animals) is reported as “dose-dependent reduction of body weight loss”.

For `CCCCOC(=O)NS(=O)(=O)c1sc(CC(C)C)cc1-c1ccc(Cn2ccnc2)cc1` [Compound 21], the Ki (AT1 receptor) is listed as greater than 10 µM, the “change in body weight during the experiment” value [1, 2] is listed as “significantly reduced loss of body weight” and the “food intake on day 11 after tumor inoculation” value [1, 2] is listed as “significantly increased food intake”. The “heart weight at the end of the study” value [1, 2] was “significantly increased heart weight”, the “spontaneous locomotor activity on day 11 after tumor inoculation” value [1, 2] was “significantly increased activity” and the “weight of brown adipose tissue (BAT) at the end of the study” value [1, 2] was “significantly increased BAT weight”. For the same molecule, the “weight of the fast fiber type EDL at the end of the study” value (“weight of the fast fiber type EDL” below) [1, 2] was “significantly increased EDL weight”, the “weight of the mixed fiber type gastrocnemius at the end of the study” value [1, 2] was “significantly increased gastrocnemius weight” and the “weight of the slow fiber type soleus at the end of the study” value (“weight of the slow fiber type soleus” below) [1, 2] was “significantly increased soleus weight”. For the same molecule, the “weight of white adipose tissue (WAT) epididymal fat at the end of the study” value [1, 2] was “significantly increased WAT weight”, the “change in body weight during the experiment” value [1, 3] was “attenuated” and the “food intake on day 11 after tumor inoculation” value [1, 3] was “significantly improved”. The “heart weight at the end of the study” value [1, 3] was “improved”, the “spontaneous locomotor activity on day 11 after tumor inoculation” value [1, 3] was “significantly improved” and the “weight of brown adipose tissue (BAT) at the end of the study” value [1, 3] was “improved”. The “weight of the fast fiber type EDL” value [1, 3] was “higher compared to placebo”, the “weight of the mixed fiber type gastrocnemius at the end of the study” value [1, 3] was “higher compared to placebo” and the “weight of the slow fiber type soleus” value [1, 3] was “higher compared to placebo”. The “weight of white adipose tissue (WAT) epididymal fat at the end of the study” value [1, 3] was “improved”, the “weight of the fast fiber type EDL” value [1, 4] was “also improved EDL weight” and the “weight of the slow fiber type soleus” value [1, 4] was “also improved soleus weight”. The “weight of the fast fiber type EDL” value [1, 5] was “also improved”, the “weight of the slow fiber type soleus” value [1, 5] was “also improved” and the “toxicity at higher dose” value ([1]; higher dose 1.0 mg/kg/d) was “toxic effects”. For the same molecule, the “survival (Kaplan Meier)” value ([1]; higher dose 1.0 mg/kg/d, vs placebo) was “not effective”, the “survival / mortality (Kaplan Meier)” value ([1]; vs placebo, listed as Compound-21, 0.2 mg/kg/day) was “significantly reduced mortality” and the “survival / mortality (Kaplan Meier)” value ([1]; vs placebo, listed as compound-21, 0.2 mg/kg/day) was “significantly improved survival”.
